# Patent US20110297235A1, “USE OF TRIARYLAMINE DERIVATIVES AS HOLE-CONDUCTING MATERIALS IN ORGANIC SOLAR CELLS AND ORGANIC SOLAR CELLS CONTAINING SAID TRIARYLAMINE DERIVATIVES” (BASF SE, priority 2009, published 2011)
# Legend:
# [1] = in vivo; cited from earlier work
# [2] = Glass transition temperature Tg and morphology M by means of DSC; type: physicochemical
# [3] = physchem; conditions: organic solvent or mixture
# [4] = Decomposition temperature Td by means of TGA; type: physicochemical
glass transition temperature Tg [2],solubility ([3]; solubility L in chlorobenzene),solubility ([3]; solubility in Ethyl acetate),solubility ([3]; solubility in Tetrahydrofuran),solubility ([3]; solubility in Toluene),decomposition temperature Td [4],SMILES,LD50 [1]
–,–,–,–,–,–,Clc1ccccc1 [chlorobenzene],2900 mg/kg
138 °C,400 to 550 mg/mL,90 to 110 mg/mL,440 to 580 mg/mL,500 to 1000 mg/mL,420 °C,CCN(CC)c1ccc(N(c2ccc(-c3ccc(N(c4ccc(OC)cc4)c4ccc(OC)cc4)cc3)cc2)c2ccc(-c3ccc(N(c4ccc(-c5ccc(N(c6ccc(OC)cc6)c6ccc(OC)cc6)cc5)cc4)c4ccc(N(CC)CC)cc4)cc3)cc2)cc1 [ID521],–
158 °C,900 to 1400 mg/mL,600 to 1200 mg/mL,400 to 600 mg/mL,490 to 980 mg/mL,450 °C,COc1ccc(N(c2ccc(OC)cc2)c2ccc(-c3ccc(N(c4ccc(OC)cc4)c4ccc5c(c4)c4cc(N(c6ccc(OC)cc6)c6ccc(-c7ccc(N(c8ccc(OC)cc8)c8ccc(OC)cc8)cc7)cc6)ccc4n5-c4ccccc4)cc3)cc2)cc1 [ID522],–
